The values below come from patent publication EP1566177A1, “The use of bisphosphonates for treating skin by stimulating of collagen synthesis” (Tigen Biotech Co., Ltd., priority 2004, dated 2005).

Common to all, as to format: cell-based
Assay [1] concerns fibroblasts isolated from human dermis. Kind of assay: RT-PCR analysis of type 1 collagen mRNA level, two-dimensional culture of dermal fibroblasts.
Experimental: Namely, total mRNA to be used in cDNA synthesis was isolated from the cells of the control and test groups using an RNeasy mini kit (QIAGEN, CA, USA). Then, the amount of the isolated total mRNA was calculated by measuring the absorbance at 260nm/280nm using an UV spectrophotometer (Eppendorf, Hamburg, Germany), thus quantifying the extracted mRNA and determining its purity (data not shown). Thereafter, 0.5 µg of the total mRNA was reacted with reverse transcriptase (Promega, WI, USA) using an oligo d(T) primer for one hour at 42 °C and for 5 minutes at 95 °C, and then the reaction was stopped at 4°C, thus synthesizing cDNA. The synthesized cDNA template was subjected to polymerase chain reaction (hereinafter, referred to as "PCR") using complementary primers of 5'-[sequence]-3' (SEQ ID NO: 1) (sense) and 5'-[sequence]-3' (SEQ ID NO: 2) (anti-sense). In the RT-PCR reaction, water was added to a reaction mixture of 0.5 µl of the template, 0.7 µl of each primer (10 pmole/µl) and PCR premix (Bioneer, Korea) to a final volume of 20 µl, and then, the aqueous mixture was pre-denatured at 94°C for 5 minutes using a thermal cycler and then subjected to 25 PCR cycles (each cycle consisting of 30 seconds at 94 °C, 30 seconds at 58 °C, and 30 seconds at 72 °C). Also, in the RT-PCR reaction, glyceraldehyde-3-phosphate dehydrogenase (GAPDH) was used as a positive control.
Then, the isolated fibroblasts were cultured in the second culture medium as described above under the same conditions for 2 days. Then, the cultured fibroblasts were supplied with a second culture medium containing 100 nM pamidronate at 3-day intervals and cultured in the medium for each period of 1 week, 2 weeks and 3 weeks. Also, fibroblasts cultured in a second culture medium containing 1mM vitamin C were used as a positive control group, and fibroblasts cultured in a secondary culture medium containing no vitamin C and pamidronate was used as a control group. […]
For assay [2] the test system is unchanged. The assay can be described thus: Western blot analysis of type 1 collagen expression, two-dimensional culture of dermal fibroblasts. The source says:
The levels of type 1 collagen in the 3-week cultured control group (3WC) and the 3-week cultured test group (3WR), which had been collected in Example 1-2), were compared with each other. For this purpose, each sample was subjected to Western blot analysis. In the Western blot analysis, each sample was electrophoresed on 8% SDS-PAGE gel, and the resulting collagen band was transferred to a nitrocellulose membrane and then treated with type 1 collagen monoclonal antibody (Abcam, Cambridge, UK) (see FIG. 2). In the Western blot analysis, actin was also used as a positive control group.
Fibroblasts were isolated from skin dermis and subcultured, in the same manner as in Example 2. Then, the isolated fibroblasts were cultured in the second culture medium as described above under the same conditions for 2 days. Then, the cultured fibroblasts were supplied with a second culture medium containing 100 nM pamidronate at 3-day intervals and cultured in the medium for each period of 1 week, 2 weeks and 3 weeks. […]
RT-PCR on each of the 1-week, 2-week and 3-week cultured control groups, the 1-week, 2-week and 3-week cultured test group administered with pamidronate, and the 1-week, 2-week and 3-week cultured positive control group administered with vitamin. […] The mRNA levels of type 1 collagen in the samples, as measured in the RT-PCR reactions, were shown in FIG. 4 for comparison with each other. […]

Assay [3] relates to fibroblasts isolated from human oral epithelium. Kind of assay: RT-PCR analysis of type 1 collagen mRNA level, two-dimensional culture of oral fibroblasts. Particulars: 100 ng/ml pamidronate together with 1mM vitamin C; cultured 1, 2 and 3 weeks (1WR, 2WR, 3WR) vs control medium without both. Here is the method: (§1) The epithelium naturally exuded from a patient who had been undergoing a surgical operation due to oral diseases was mixed with […] DMEM (LG-DMEM, glucose 1g/L, GIBCO, MO, USA) medium, a first culture medium, and the mixture was pre-centrifuged to isolate cells. The cells were ultra-centrifuged using Percoll solution (SIGMA, MD, USA), thus isolating only nucleated cells. The nucleated cells isolated as described above cultured in an incubator under conditions of 5% (v/v) CO2 and 37.5 °C while replacing a second culture medium (high-glucose DMEM medium containing 10% bovine fetal serum) at two-day intervals, and only fibroblasts were isolated from the culture medium.
The isolated fibroblasts were cultured in said second culture medium under the same conditions for 2 days to saturate them. […]
The collagen mRNA levels of the 1-week cultured control group (1WC), the 2-week cultured control group (2WC), the 3-week cultured control group (3WC), the 1-week cultured test group (1WR), the 2-week cultured test group (2WR) and the 3-week cultured group (3WR), which had been collected in Example 1-2), were measured and compared with each other. […]

For assay [4] the test system is unchanged. The assay can be described thus: Western blot analysis of type 1 collagen protein level, two-dimensional culture of oral fibroblasts. Particulars: 100 ng/ml pamidronate together with 1mM vitamin C; 3-week culture (3WR) vs control (3WC). Here is the method:
as §1
The isolated fibroblasts were cultured in said second culture medium under the same conditions for 2 days to saturate them. Then, the saturated fibroblasts were cultured in a second culture medium containing 1mM vitamin C and 100 ng/ml pamidronate (Hanlim Pharm. Co., Ltd., Korea) for each period of 1 week, 2 weeks and 3 weeks, while replacing the medium at 3-day intervals. As a control group, a second culture medium containing no vitamin C and pamidronate was used.
The levels of type 1 collagen in the 3-week cultured control group (3WC) and the 3-week cultured test group (3WR), which had been collected in Example 1-2), were compared with each other. […]

The subject of assay [5] is fibroblasts isolated from human dermis. Kind of assay: Three-dimensional culture of dermal fibroblasts on PLGA support, haematoxylin-eosin staining of collagen layer. Particulars: 100 nM pamidronate together with 1 mM vitamin C; 4 weeks; control: vitamin C alone. As for the experimental part:
A given amount of dermal tissue was excised from the skin of three normal persons. The excised human dermis from which an epidermal and fatty layer had been removed was finely cut and treated with collagenase so as to isolate dermis from epidermis. The isolated dermal tissue was cultured in 0.25% trypsin solution at 36 °C for 10 minutes. Then, the culture broth was vortexed to isolate fibroblasts. The isolated cells were collected and washed, and then cultured in a DMEM medium (GIBCO, MO, U.S.A.) containing 10% fetal bovine serum (FBS). At about 70% confluence, they were subcultured.
A PLGA-based, disc-shaped polymer support (Innotech., Korea) with a diameter of 10 mm, a thickness of 3 mm, an average pore size of 300-500 µm and a porosity of 90%, was used in three-dimensional culture. The support was treated with 100 %(v/v), 90 %(v/v), 70 %(v/v) and then 10 %(v/v) ethanol in order, at 4 °C for each treatment, and washed with PBS (phosphate buffered saline) and a second culture medium followed by drying. Next, 100 µl of a suspension of 1 x 10^6 dermal fibroblasts cultured as described above was plated on the support and cultured in a culture dish with a diameter of 60 mm. After two hours, 6 ml of the second culture medium as described above was added to the cells, and the mixture was cultured in a shaking incubator (30rpm). […]

As for `NCCCC(O)(P(=O)(O)O)P(=O)(O)O` [alendronate, 4-amino-1-hydroxybutylidene-1,1-bisphospnonic acid], the “mRNA level of type 1 collagen” value in assay [1] (alendronate alone, same concentration as pamidronate (100 nM), cultured one week, FIG. 6) is “remarkably increased”. Moreover, the “type 1 collagen protein (Western blot)” value in assay [2] (alendronate alone, same concentration as pamidronate (100 nM), cultured one week, FIG. 7) was “remarkably increased”.

For the molecule `NCCC(O)(P(=O)(O)O)P(=O)(O)O` [pamidronate, 3-amino-1-hydroxypropylidene-1,1-bisphosphonic acid], the “mRNA level of type 1 collagen” value is recorded as “high regardless of culture period” in assay [1] (100 nM pamidronate alone, cultured 1, 2 and 3 weeks); “higher mRNA level than that of the 3-week cultured control group” in assay [3]. The “type 1 collagen protein level” value in assay [4] is “synthesized at a remarkably high level”. For the same molecule, the “layer of collagen adhered to the surface of the PLGA support” value in assay [5] is listed as “much thicker than the case of addition of vitamin C alone”. Further, in assay [2] (100 nM pamidronate alone, three weeks of culture, compared with single addition of 1mM vitamin C), the “expression level of type 1 collagen” value was “remarkable increase”.

Regarding `O=C1O[C@H]([C@@H](O)CO)C(O)=C1O` [vitamin C], the “mRNA level of type 1 collagen” value in assay [1] (1mM vitamin C alone (positive control), cultured 1, 2 and 3 weeks) was “increased rapidly in the initial stage of culture, but it was reduced with an increase in culture time”.
